{"source": "paper PMC7568301", "about": "“Characterization and engineering of a two-enzyme system for plastics depolymerization” (Proceedings of the National Academy of Sciences of the …, 2020)", "key": {"[1]": {"test_system": "T1, C. thiooxydans homolog", "T1 construct": "gene MHETase homolog; Gly179 at the position of MHETase Ser131", "experiment": "HPLC hydrolysis assay, initial velocities, substrate inhibition model fit", "format": "biochemical, Comamonas thiooxydans", "conditions": "substrate inhibition constant", "source_text": "HPLC hydrolysis assay, initial velocities, substrate inhibition model fit on C. thiooxydans homolog | MHETase and both homologs also display this behavior"}, "[2]": {"test_system": "T2, C. thiooxydans homolog", "T2 construct": "gene MHETase homolog", "conditions": "substrate inhibition model"}, "[3]": {"target": "T3, MHETase (Pseudideonella sakaiensis, UniProt A0A0K8P8E7)", "T3 sequence (A0A0K8P8E7 18-603 limits assumed)": "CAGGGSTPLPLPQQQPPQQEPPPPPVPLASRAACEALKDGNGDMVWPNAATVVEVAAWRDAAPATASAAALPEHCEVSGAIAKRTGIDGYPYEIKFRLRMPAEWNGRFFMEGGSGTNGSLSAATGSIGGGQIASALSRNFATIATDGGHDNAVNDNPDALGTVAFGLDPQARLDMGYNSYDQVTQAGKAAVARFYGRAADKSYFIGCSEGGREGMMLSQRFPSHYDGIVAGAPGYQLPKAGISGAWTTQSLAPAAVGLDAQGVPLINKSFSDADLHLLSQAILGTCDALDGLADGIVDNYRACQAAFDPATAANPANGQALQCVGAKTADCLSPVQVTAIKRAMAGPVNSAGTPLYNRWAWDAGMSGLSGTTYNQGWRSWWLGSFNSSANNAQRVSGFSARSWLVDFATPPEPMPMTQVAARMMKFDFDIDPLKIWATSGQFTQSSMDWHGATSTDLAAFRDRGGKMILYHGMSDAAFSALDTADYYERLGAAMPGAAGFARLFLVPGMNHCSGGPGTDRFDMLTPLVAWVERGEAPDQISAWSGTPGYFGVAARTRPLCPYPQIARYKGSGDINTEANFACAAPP", "experiment": "HPLC hydrolysis assay, initial velocities, substrate inhibition model fit", "format": "biochemical", "parameters": "gene ISF6_0224; pET21b(+)-based expression in E. coli, purified; residue borders and tags only in SI; catalytic triad Ser225, Asp492, His528", "conditions": "substrate inhibition constant", "source_text": "HPLC hydrolysis assay, initial velocities, substrate inhibition model fit on MHETase | MHETase is also the most susceptible to substrate inhibition with a Kk value of […]"}, "[4]": {"target": "T3, MHETase", "experiment": "X-ray crystallography, […] Å", "format": "binding", "parameters": "gene ISF6_0224; pET21b(+)-based expression in E. coli, purified; residue borders and tags only in SI; catalytic triad Ser225, Asp492, His528", "conditions": "active site; fully occupied in 6QZ3, partially occupied in 6QZ1"}, "[5]": {"substrate": "O=C(O)c1ccc(C(=O)OCCO)cc1", "experiment": "HPLC hydrolysis assay, initial velocities, simple Michaelis-Menten fit", "format": "biochemical, Pseudideonella sakaiensis", "conditions": "simple Michaelis-Menten model", "source_text": "HPLC hydrolysis assay, initial velocities, simple Michaelis-Menten fit on MHETase | The S131G mutant has a Km value approximately eightfold higher than that of wild-type MHETase"}}}
{"molecule": "O=C(O)c1ccc(C(=O)OCCO)cc1", "note": "[MHET]", "values": [{"measurement": "Kk", "setting": "[1]", "value": "78.80 ± 3.04", "unit": "µM"}, {"measurement": "Km", "setting": "[2]", "value": "175 ± 4.75", "unit": "µM"}, {"measurement": "Kk", "setting": "[3]", "value": "307.30 ± 20.65", "unit": "µM"}]}
{"molecule": "O=C(O)c1ccccc1", "note": "[benzoate]", "values": [{"measurement": "X-ray crystallography, 1.6 Å", "setting": "[4]", "value": "one structure with a fully occupied benzoic acid ligand (6QZ3)"}]}
{"molecule": "MHETase (Pseudideonella sakaiensis; S131G) (protein, pET21b(+)-based expression in E. coli, purified; residue borders and tags only in SI; catalytic triad Ser225, Asp492, His528) CAGGGSTPLPLPQQQPPQQEPPPPPVPLASRAACEALKDGNGDMVWPNAATVVEVAAWRDAAPATASAAALPEHCEVSGAIAKRTGIDGYPYEIKFRLRMPAEWNGRFFMEGGGGTNGSLSAATGSIGGGQIASALSRNFATIATDGGHDNAVNDNPDALGTVAFGLDPQARLDMGYNSYDQVTQAGKAAVARFYGRAADKSYFIGCSEGGREGMMLSQRFPSHYDGIVAGAPGYQLPKAGISGAWTTQSLAPAAVGLDAQGVPLINKSFSDADLHLLSQAILGTCDALDGLADGIVDNYRACQAAFDPATAANPANGQALQCVGAKTADCLSPVQVTAIKRAMAGPVNSAGTPLYNRWAWDAGMSGLSGTTYNQGWRSWWLGSFNSSANNAQRVSGFSARSWLVDFATPPEPMPMTQVAARMMKFDFDIDPLKIWATSGQFTQSSMDWHGATSTDLAAFRDRGGKMILYHGMSDAAFSALDTADYYERLGAAMPGAAGFARLFLVPGMNHCSGGPGTDRFDMLTPLVAWVERGEAPDQISAWSGTPGYFGVAARTRPLCPYPQIARYKGSGDINTEANFACAAPP", "values": [{"measurement": "Km", "setting": "[5]", "value": "184.10 ± 3.50", "unit": "µM"}]}
